Results taken from US8383622B2 (priority 2007, dated 2013).

Key:
Mouse 11β-HSD1 = Mouse 11β-HSD1 (Mus musculus, UniProt P50172); assay: Evaluation of compound against mouse 11β-HSD1 (HTRF assay, 11-dehydrocorticosterone substrate); format: biochemical; conditions: 11-dehydrocorticosterone 2 μM, 37° C. 2 hours
Description: Evaluation Method of 11β-HSD1 Inhibitor (Evaluation of Compound Against Mouse 11β-HSD1)
(§1) After preincubating an inhibitor in a reaction solution consisting of 50 mM sodium phosphate buffer (pH 7.5), bovine serum albumin (1 mg/mL), NADPH (0.42 mg/mL), glucose-6-phosphate (1.26 mg/mL), glucose-6-phosphate dehydrogenase, and an enzyme at room temperature for 30 minutes, 11-dehydrocorticosterone (2 μM) was added as a substrate (total amount 10 μL). After reacting at 37° C. for 2 hours, an XL-665-labeled cortisol solution (5 μL), and a Cryptate-labeled anti-cortisol antibody solution (5 μL) were added. The reaction was performed at room temperature for 2 hours, and fluorescence intensity (HTRF method) was measured.
A corticosterone concentration was calculated from a standard curve prepared using a known concentration of corticosterone for each assay.
Taking a concentration of corticosterone generated in the absence of the inhibitor as a control value, 50% inhibitory concentration (IC50 value) of the inhibitor against 11β-HSD1 was calculated from an inhibition curve plotting inhibition rate against the control value at each concentration of the inhibitor.

Human 11β-HSD1 = Human 11β-HSD1 (Homo sapiens, UniProt P28845); assay: Evaluation of compound against human 11β-HSD1 (HTRF cortisol assay, cortisone substrate); format: biochemical; conditions: cortisone 5 μM, 37° C. 2 hours
Description: Evaluation Method of […] Inhibitor (Evaluation of Compound Against Human 11β-HSD1)
as §1, with “dehydrogenase” for “dehydrogenase,”, “30), (Inutes, cortisone (5” for “30 minutes, 11-dehydrocorticosterone (2”, “measured. A cortisol concentration was calculated from a standard curve prepared using a known concentration of cortisol for each assay.” for “measured.”
Taking a concentration of cortisol generated in the absence of the inhibitor as a control value, 50% inhibitory concentration (IC50 value) of the inhibitor against 11β-HSD1 was calculated from an inhibition curve plotting inhibition rate against the control value at each concentration of an inhibitor.

Sequence of Mouse 11β-HSD1 (P50172 whole entry): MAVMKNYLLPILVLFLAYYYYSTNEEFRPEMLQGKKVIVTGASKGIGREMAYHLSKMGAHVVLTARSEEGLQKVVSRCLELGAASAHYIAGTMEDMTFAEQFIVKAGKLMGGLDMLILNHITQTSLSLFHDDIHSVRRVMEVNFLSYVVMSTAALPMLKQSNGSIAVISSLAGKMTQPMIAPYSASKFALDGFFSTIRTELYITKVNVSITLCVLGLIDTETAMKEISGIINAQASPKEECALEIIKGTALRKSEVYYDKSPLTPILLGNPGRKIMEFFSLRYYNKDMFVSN
Sequence of Human 11β-HSD1 (P28845 whole entry): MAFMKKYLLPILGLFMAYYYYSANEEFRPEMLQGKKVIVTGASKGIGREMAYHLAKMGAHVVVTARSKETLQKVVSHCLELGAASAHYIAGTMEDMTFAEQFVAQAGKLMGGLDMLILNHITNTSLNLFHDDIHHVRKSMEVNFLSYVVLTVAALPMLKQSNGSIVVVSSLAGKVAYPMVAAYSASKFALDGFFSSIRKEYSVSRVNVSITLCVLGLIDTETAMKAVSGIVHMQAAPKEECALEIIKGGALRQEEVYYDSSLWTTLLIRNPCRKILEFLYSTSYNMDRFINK

`COC(=O)NC(C)(C)/C=C/n1ncc(C(=O)N[C@H]2C3CC4CC2C[C@](F)(C4)C3)c1-c1ccccc1` [Compound I-128] was tested, and the IC50 (Mouse 11β-HSD1) was 5.5 nM and the IC50 (Human 11β-HSD1) was 62.4 nM.

`COC(=O)NC(C)(C)/C=C/n1ncc(C(=O)N[C@H]2C3CC4CC2C[C@](O)(C4)C3)c1-n1cccn1` [Compound I-133] gave an IC50 (Mouse 11β-HSD1) of 0.52 nM and an IC50 (Human 11β-HSD1) of 75.6 nM.

With `COC(=O)NC(C)(C)/C=C/n1ncc(C(=O)N[C@H]2C3CC4CC2C[C@](OC(N)=O)(C4)C3)c1-c1ccccc1` [Compound I-127] the IC50 (Mouse 11β-HSD1) was 3 nM and the IC50 (Human 11β-HSD1) was 88.1 nM.

`CC(C)COc1c(C(=O)N[C@H]2C3CC4CC2C[C@](OC(N)=O)(C4)C3)cnn1/C=C/C(C)(C)NS(C)(=O)=O` [Compound I-9] showed an IC50 (Mouse 11β-HSD1) of 1.7 nM and an IC50 (Human 11β-HSD1) of 11 nM.

`COC(=O)NC(C)(C)/C=C/n1ncc(C(=O)NC2C3CC4CC2CC(COC(N)=O)(C4)C3)c1-n1cccn1` (stereo not shown) [Compound I-139] showed an IC50 (Mouse 11β-HSD1) of 0.37 nM and an IC50 (Human 11β-HSD1) of 64.4 nM.

`CC(C)COc1c(C(=O)N[C@H]2C3CC4CC2C[C@](CO)(C4)C3)cnn1/C=C/C(C)(C)C(N)=O` [Compound I-63] was tested, and the IC50 (Mouse 11β-HSD1) was 0.21 nM and the IC50 (Human 11β-HSD1) was 1.4 nM.

`CC(C)COc1c(C(=O)NC2C3CC4CC2CC(O)(C4)C3)cnn1C=CC(C)(C)NC(=O)COCc1ccccc1` (stereo not shown) [Compound I-77] showed an IC50 (Mouse 11β-HSD1) of 0.23 nM and an IC50 (Human 11β-HSD1) of 0.62 nM.

Compound `CC(C)COc1c(C(=O)N[C@H]2C3CC4CC2C[C@](OC(N)=O)(C4)C3)cnn1/C=C/C(C)(C)C#N` [Compound I-7] has an IC50 (Mouse 11β-HSD1) of 0.41 nM and an IC50 (Human 11β-HSD1) of 3.4 nM.

Compound `CC(=O)NC(C)(C)/C=C/n1ncc(C(=O)N[C@H]2C3CC4CC2C[C@](CO)(C4)C3)c1CC(C)C` [Compound I-121] has an IC50 (Mouse 11β-HSD1) of 4.9 nM and an IC50 (Human 11β-HSD1) of 154 nM.

`CC(=O)NC(C)(C)/C=C/n1ncc(C(=O)N[C@H]2C3CC4CC2C[C@](CO)(C4)C3)c1-c1ccccc1` [Compound I-131] gave an IC50 (Mouse 11β-HSD1) of 1.4 nM and an IC50 (Human 11β-HSD1) of 20.8 nM.

With `CC(C)COc1c(C(=O)N[C@H]2C3CC4CC2C[C@](O)(C4)C3)cnn1/C=C/C(C)(C)NC(=O)CCC1CCCC1` [Compound I-36] the IC50 (Mouse 11β-HSD1) was 1 nM and the IC50 (Human 11β-HSD1) was 1.2 nM.
